Experimental data: patent US6683077B2, “2-Amino-benzoxazinones for the treatment of viral infections” (G.D. Searle & Co., priority 1996, dated 2004)
pEC50: −log10 of the molar value.

Test system: HCMV engineered virus RC256
Experiment: microbe, parasite or virus in culture
Format: cell-based, human cytomegalovirus
Conditions: Human betaherpesvirus 5, Fibroblast, read-out: Antiviral Activity RC256, first value (EC50)

Row | Structure (SMILES) | pEC50
1 | COc1ccc(C[C@H](Nc2nc3ccc(CNC(=O)OCc4cccnc4)c(C)c3c(=O)o2)C(=O)N(C)Cc2ccccc2)cc1 [Example 18, 3-Pyridinylmethyl[[2-[[1S-[(4-methoxyphenyl)methyl]-2-[methyl(phenylmethyl)amino]-2-oxoethyl]amino]-5-methyl-4-oxo-4H-3,1-benzoxazin-6-yl]methyl]carbamate] | 4.85
2 | COC(=O)[C@H](Cc1ccccc1)Nc1nc2ccc(NC(=O)Cc3cccs3)c(C)c2c(=O)o1 [Example 11g, N-[6-[[(2-Thienylmethyl)carbonyl]amino]-5-methyl-4-oxo-4H-3,1-benzoxazin-2-yl]-L-phenylalanine, methyl ester] | 5.00
3 | COc1ccc(C[C@H](Nc2nc3ccc(CNC(=O)CN4CCOCC4)c(C)c3c(=O)o2)C(=O)N(C)Cc2ccccc2)cc1 [Example 9n, N-[[2-[[1S-[(4-Methoxyphenyl)methyl]-2-[methyl(phenylmethyl)amino]-2-oxoethyl]amino]-5-methyl-4-oxo-4H-3,1-benzoxazin-6-yl]methyl]morpholine-4-acetamide] | 4.12
4 | COc1ccc(C[C@H](Nc2nc3ccc(CNC(=O)CCc4ccncc4)c(C)c3c(=O)o2)C(=O)N(C)Cc2ccccc2)cc1 [Example 9f, N-[[2-[[1S-[(4-Methoxyphenyl)methyl]-2-[methyl(phenylmethyl)amino]-2-oxoethyl]amino]-5-methyl-4-oxo-4H-3,1-benzoxazin-6-yl]methyl]pyridine-4-propanamide] | 4.40
5 | COc1ccc(C[C@H](Nc2nc3ccc(N)c(C)c3c(=O)o2)C(=O)N(C)Cc2ccccc2)cc1 [Example 8h, αS-[(6-amino-5-methyl-4-oxo-4H-3,1-benzoxazin-2-yl)amino]-N-methyl-4-methoxy-N-(phenylmethyl)benzenepropanamide] | 4.00
6 | CCN(Cc1ccccc1)C(=O)[C@H](Cc1ccccc1)Nc1nc2ccc(N)c(C)c2c(=O)o1 [Example 8f, αS-[(6-Amino-5-methyl-4-oxo-4H-3,1-benzoxazin-2-yl)amino]-N-ethyl-N-(phenylmethyl)benzenepropanamide] | 4.77
7 | COc1ccc(C[C@H](Nc2nc3ccc(CNC(=O)NCc4ccncc4)c(C)c3c(=O)o2)C(=O)N(C)Cc2ccccc2)cc1 [Example 9e, 4-Methoxy-N-methyl-αS-[[5-methyl-4-oxo-6-[[[[[(4-pyridinyl)methyl]amino]carbonyl]amino]methyl]-4H-3,1-benzoxazin-2-yl]amino]-N-(phenylmethyl)benzenepropanamide] | 4.46
8 | COc1ccc(C[C@H](Nc2nc3cccc(C)c3c(=O)o2)C(=O)N(C)Cc2ccccc2)cc1 [Example 1s, αS-[(5-Methyl-4-oxo-4H-3,1-benzoxazin-2-yl)amino]-4-methoxy-N-methyl-N-(phenylmethyl)benzenepropanamide] | 5.15
9 | COc1ccc(C[C@H](Nc2nc3ccc(CNC(=O)OCCN4CCOCC4)c(C)c3c(=O)o2)C(=O)N(C)Cc2ccccc2)cc1 [Example 18b, 2-(4-Morpholinyl)ethyl[[2-[[1S-[(4-methoxyphenyl)methyl]-2-[methyl(phenylmethyl)amino]-2-oxoethyl]amino]-5-methyl-4-oxo-3,1-benzoxazin-6-yl]methyl]carbamate] | 4.92
10 | COc1ccc(C[C@H](Nc2nc3ccc(CNC(=O)OC(C)(C)C)c(C)c3c(=O)o2)C(=O)N2CCOCC2)cc1 [Example 7h, 1,1-Dimethylethyl[[2-[[1S-[(4-methoxyphenyl)methyl]-2-(4-morpholinyl)-2-oxoethyl]amino]-5-methyl-4-oxo-4H-3,1-benzoxazin-6-yl]methyl]carbamate] | 4.80
11 | COc1ccc(C[C@H](Nc2nc3ccc(CNC(=O)OC(C)(C)C)c(C)c3c(=O)o2)C(=O)N(C)Cc2ccccc2)cc1 [Example 7i, 1,1-Dimethylethyl[[2-[[1S-[(4-methoxyphenyl)methyl]-2-[methyl(phenylmethyl)amino]-2-oxoethyl]amino]-5-methyl-4-oxo-4H-3,1-benzoxazin-6-yl]methyl]carbamate] | 4.52
12 | COC(=O)[C@H](Cc1ccccc1)Nc1nc2ccc(NS(=O)(=O)c3ccccc3)c(C)c2c(=O)o1 [Example 13] | 4.22
13 | CCN(Cc1ccccc1)C(=O)[C@H](Cc1ccccc1)Nc1nc2c(Br)cc(N)c(C)c2c(=O)o1 [Example 8g, αS-[(6-Amino-8-bromo-5-methyl-4-oxo-4H-3,1-benzoxazin-2-yl)amino]-N-ethyl-N-(phenylmethyl)benzenepropanamide] | 5.07
14 | Cc1c(CNC(=O)OCCN(C)C)ccc2nc(N[C@@H](Cc3ccccc3)C(=O)N(C)Cc3ccccc3)oc(=O)c12 [Example 18g, 2-(Dimethylamino)ethyl[[5-methyl-2-[[2-[methyl(phenylmethyl)amino]-2-oxo-1S-(phenylmethyl)ethyl]amino]-4-oxo-4H-3,1-benzoxazin-6-yl]methyl]carbamate] | 4.89
15 | Cc1c(CNC(=O)OCc2ccccc2)ccc2nc(N[C@@H](Cc3ccccc3)C(=O)N(C)Cc3cccnc3)oc(=O)c12 [Example 9z] | 5.00
16 | Cc1cccc2nc(N[C@@H](CCCCNC(=O)OCc3ccccc3)C(=O)OC(C)(C)C)oc(=O)c12 [Example 1i, N^α-(5-Methyl-4-oxo-4H-3,1-benzoxazin-2-yl)-N^ε-[(phenylmethoxy)carbonyl)-L-lysine, 1,1-dimethylethyl ester] | 5.05

Row | Structure (SMILES) | pEC50
17 | Cc1cccc2nc(N[C@H](C)c3ccccc3)oc(=O)c12 [Example 3c, 5-Methyl-2-[[(1R)-1-phenylethyl]amino]-4H-3,1-benzoxazin-4-one] | 4.77
18 | CCN(CC)C(=O)[C@H](Cc1ccccc1)Nc1nc2ccc(NC(=O)OC(C)(C)C)c(C)c2c(=O)o1 [Example 6ee, 1,1-Dimethylethyl[2-[[2-(diethylamino)-2-oxo-1S-(phenylmethyl)ethyl]amino]-5-methyl-4-oxo-4H-3,1-benzoxazin-6-yl]carbamate] | 4.59
19 | Cc1c(CNC(=O)CCc2ccccc2)ccc2nc(N[C@@H](Cc3ccccc3)C(=O)N(C)Cc3cccnc3)oc(=O)c12 [Example 9aa, N-Methyl-αS-[[5-methyl-4-oxo-6-[[(1-oxo-3-phenylpropyl)amino]methyl]-4H-3,1-benzoxazin-2-yl]amino]-N-(3-pyridinylmethyl)benzenepropanamide] | 4.48
20 | Cc1cccc2nc(N[C@@H](Cc3ccc(O)cc3)C(=O)OC(C)(C)C)oc(=O)c12 [Example 1l, N-(5-Methyl-4-oxo-4H-3,1-benzoxazin-2-yl)-L-tyrosine, 1,1-dimethylethyl ester] | 4.46
21 | COc1ccc(C[C@H](Nc2nc3ccc(CNC(=O)OCc4ccccc4)c(C)c3c(=O)o2)C(=O)N(C)Cc2ccccc2)cc1 [Example 9i, Phenylmethyl[[2-[[1S-[(4-methoxyphenyl)methyl]-2-[methyl(phenylmethyl)amino]-2-oxcethyl]amino]-5-methyl-4-oxo-4H-3,1-benzoxazin-6-yl]methyl]carbamate] | 4.85
22 | COc1ccc(C[C@H](Nc2nc3ccc(CNC(=O)OCCN(C)C)c(C)c3c(=O)o2)C(=O)N(C)Cc2ccccc2)cc1 [Example 18c, 2-(Dimethylamino)ethyl[[2-[[1S-[(4-methoxyphenyl)methyl]-2-[methyl(phenylmethyl)amino]-2-oxoethyl]amino]-5-methyl-4-oxo-3,1-benzoxazin-6-yl]methyl]carbamate] | 4.82
23 | COC(=O)C(C)(C)Nc1nc2ccc(NC(=O)OC(C)(C)C)c(C)c2c(=O)o1 [Example 6w, N-[6-[[(1,1-Dimethylethoxy)carbonyl]amino]-5-methyl-4-oxo-4H-3,1-benzoxazin-2-yl]-2-aminoisobutyric acid, methyl ester] | < 4.00
24 | Cc1c(CNC(=O)CN(C)C)cc(Br)c2nc(N[C@@H](Cc3ccccc3)C(=O)N(C)Cc3ccccc3)oc(=O)c12 [Example 15a, αS-[[8-Bromo-6-[[[2-(dimethylamino)acetyl]amino]methyl]-5-methyl-4-oxo-4H-3,1-benzoxazin-2-yl]amino]-N-methyl-N-(phenylmethyl)benzenepropanamide] | 4.68
25 | COc1ccc(C[C@H](Nc2nc3ccc(NC(=O)OC(C)(C)C)c(C)c3c(=O)o2)C(=O)NCc2ccccn2)cc1 [Example 6gg, 1,1-Dimethylethyl[2-[[1S-[(4-methoxphenyl)methyl]-2-oxo-2-[[(2-pyridinyl)methyl]amino]ethyl]amino]-5-methyl-4-oxo-4H-3,1-benzoxazin-6-yl]carbamate] | 5.19
26 | Cc1c(CNC(=O)OCc2cccnc2)ccc2nc(N[C@@H](Cc3ccccc3)C(=O)N(C)Cc3ccccc3)oc(=O)c12 [Example 18e, 3-Pyridinylmethyl[[5-methyl-2-[[2-[methyl(phenylmethyl)amino]-2-oxo-1S-(phenylmethyl)ethyl]amino]-4-oxo-4H-3,1-benzoxazin-6-yl]methyl]carbamate] | 5.15
27 | COC(=O)[C@H](Cc1ccc(I)cc1)Nc1nc2ccc(NC(=O)OC(C)(C)C)c(C)c2c(=O)o1 [Example 6t, N-[6-[[(1,1-Dimethylethoxy)carbonyl]amino]-5-methyl-4-oxo-4H-3,1-benzoxazin-2-yl]-4-iodo-L-phenylalanine, methyl ester] | 4.77
28 | COc1ccc(C[C@H](Nc2nc3ccc(CNC(=O)CN4CCCC4)c(C)c3c(=O)o2)C(=O)N(C)Cc2ccccc2)cc1 [Example 9c, N-[[2-[[1S-[(4-Methoxyphenyl)methyl]-2-[methyl(phenylmethyl)amino]-2-oxoethyl]amino]-5-methyl-4-oxo-4H-3,1-benzoxazin-6-yl]methyl]pyrrolidine-1-acetamide] | 5.05
29 | Cc1c(NC(=O)OC(C)(C)C)ccc2nc(N[C@@H](Cc3c[nH]c4ccccc34)C(=O)N(C)C)oc(=O)c12 [Example 6o, N-[6-[[(1,1-Dimethylethoxy)carbonyl]amino]-5-methyl-4-oxo-4H-3,1-benzoxazin-2-yl]-L-tryptophan, dimethylamide] | 4.23
30 | COc1ccc(C[C@H](Nc2nc3ccc(NC(=O)OC(C)(C)C)c(C)c3c(=O)o2)C(=O)N(C)C)cc1 [Example 6d, N-[6-[[(1,1-Dimethylethoxy)carbonyl]amino]-5-methyl-4-oxo-4H-3,1-benzoxazin-2-yl]-O-methyl-L-tyrosine, dimethylamide] | 4.35
31 | Cc1cccc2nc(N[C@@H](C)C(=O)OC(C)(C)C)oc(=O)c12 [Example 1, N-(5-Methyl-4-oxo-4H-3,1-benzoxazin-2-yl)-L-alanine, tert-butyl Ester] | 4.00
